These results are taken from US8883796B2, “Biphenyl derivatives, pharmaceutical composition comprising the same, and preparation method thereof” (Korea Institute of Science and Technology, priority 2013, dated 2014).

As usually defined, the Ki is a measure of affinity in units of concentration, obtained from inhibition or displacement. What is called inhibition is how much of the control response was suppressed.

This experiment deals with T1, Human recombinant 5-HT7 receptor (Homo sapiens, UniProt P34969).
T1 construct: expressed in transfected cells; host or cells: CHO cells (membrane preparation)
T1 sequence (P34969 whole entry): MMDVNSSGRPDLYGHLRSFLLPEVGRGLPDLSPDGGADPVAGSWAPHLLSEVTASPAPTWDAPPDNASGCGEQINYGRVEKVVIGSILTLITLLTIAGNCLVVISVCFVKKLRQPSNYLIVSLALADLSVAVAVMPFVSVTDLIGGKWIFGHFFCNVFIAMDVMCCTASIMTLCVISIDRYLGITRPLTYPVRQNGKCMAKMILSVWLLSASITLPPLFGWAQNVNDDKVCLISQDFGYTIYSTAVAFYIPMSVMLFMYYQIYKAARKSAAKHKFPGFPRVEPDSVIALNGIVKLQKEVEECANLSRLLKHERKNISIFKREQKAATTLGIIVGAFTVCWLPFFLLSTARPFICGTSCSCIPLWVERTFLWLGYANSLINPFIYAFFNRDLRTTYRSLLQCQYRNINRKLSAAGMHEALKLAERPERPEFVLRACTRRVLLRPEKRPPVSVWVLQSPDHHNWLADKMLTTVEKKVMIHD
Put plainly: Binding affinity for 5-HT7 serotonin receptor ([3H]LSD radioligand binding). The following applies: 1 nM [3H]LSD, human recombinant 5-HT7 receptor expressed in CHO cells; for Ki: 25° C., 90 minutes; for inhibition at 10 µM: 10 μM test compound. On the procedure: % inhibition at 10 μM and binding affinity (Ki) of the novel compound represented by the Chemical Formula 1 according to the present disclosure for the 5-HT7 serotonin receptor were measured as follows.
Human recombinant 5-HT7 receptor expressed in CHO cells was used. A reaction mixture (final concentration 0.25 mL) prepared from 1 nM [^3H]LSD, 5-HT7 receptor membrane (15 μg/well), test compound of various concentrations and 50 mM Tris-HCl buffer (pH 7.4) containing 10 mM MgCl2 and 0.1 mM EDTA was incubated at 25° C. for 90 minutes. After the incubation, reaction was terminated by rapid filtration through Whatman GF/C glass fiber filter previously soaked in 0.3% polyethyleneimine using a Brandel harvester and washed with cold 50 mM Tris-HCl buffer. The filter was covered with MeltiLex, sealed in a sample bag and dried in an oven. Counting was carried out using MicroBeta (Wallac). Nonspecific binding was measured in the presence of 0.5 μM mianserin. The Ki value of the test compound was obtained from nonlinear regression analysis (GraphPad Prism Program, San Diego, USA) of isotherms obtained by repeating experiments 3 times in duplicate test tubes at 10-11 varied concentrations.
The % inhibition at 10 μM and binding affinity (Ki) of the novel compound according to the present disclosure for the 5-HT7 serotonin receptor are given in Table 1.

Regarding `c1ccc(-c2ccccc2CN2CCN(c3ccccc3)CC2)cc1` [Compound 1, 1-(biphenyl-2-ylmethyl)-4-phenylpiperazine], the Ki came to 0.537 µM and the inhibition at 10 µM is 59.7%.
Consider `COc1ccccc1N1CCN(Cc2ccccc2-c2ccccc2)CC1` [Compound 8, 1-(biphenyl-2-ylmethyl)-4-(2-methoxyphenyl)piperazine], for which the Ki worked out at 0.432 µM and the inhibition at 10 µM turned out to be 95.1%.
With `CCOc1ccccc1N1CCN(Cc2ccccc2-c2ccccc2)CC1` [Compound 9, 1-(biphenyl-2-ylmethyl)-4-(2-ethoxyphenyl)piperazine], the Ki is 0.192 µM and the inhibition at 10 µM was found to be 86.2%.
In the same order, the values of `Cc1ccc(C)c(N2CCN(Cc3ccccc3-c3ccccc3)CC2)c1` [Compound 21, 1-(biphenyl-2-ylmethyl)-4-(2,5-dimethylphenyl)piperazine] are 0.658 µM and 93.8%.
With `Cc1cc(C)cc(N2CCN(Cc3ccccc3-c3ccccc3)CC2)c1` [Compound 22, 1-(biphenyl-2-ylmethyl)-4-(3,5-dimethylphenyl)piperazine], the Ki turned out to be 0.367 µM and the inhibition at 10 µM came to 84%.
Consider `CC(C)c1ccccc1N1CCN(Cc2ccccc2-c2ccccc2)CC1` [Compound 23, 1-(biphenyl-2-ylmethyl)-4-(2-isopropylphenyl)piperazine], for which the Ki turned out to be 0.274 µM and the inhibition at 10 µM stood at 87%.
As for `c1ccc(-c2ccccc2CN2CCN(c3ccccc3-c3ccccc3)CC2)cc1` [Compound 24, 1-(biphenyl-2-ylmethyl)-4-(biphenyl-2-yl)piperazine], the Ki stood at 0.256 µM and the inhibition at 10 µM stood at 93.8%.
Take `FC(F)(F)c1cccc(N2CCN(Cc3ccccc3-c3ccccc3)CC2)c1` [Compound 25, 1-(biphenyl-2-ylmethyl)-4-(3-(trifluoromethyl)phenyl)piperazine]: the Ki was found to be 0.064 µM and the inhibition at 10 µM was 95.9%.
`Fc1cccc(N2CCN(Cc3cccc(-c4ccccc4)c3)CC2)c1` [Compound 36, 1-(biphenyl-3-ylmethyl)-4-(3-fluorophenyl)piperazine]: the Ki was determined as 0.079 µM and the inhibition at 10 µM came to 91.3%.
In the same order, the values of `Clc1ccccc1N1CCN(Cc2cccc(-c3ccccc3)c2)CC1` [Compound 38, 1-(biphenyl-3-ylmethyl)-4-(2-chlorophenyl)piperazine] are 0.066 µM and 88.3%.
In the case of `Cc1cccc(N2CCN(Cc3cccc(-c4ccccc4)c3)CC2)c1` [Compound 47, 1-(biphenyl-3-ylmethyl)-4-(3-methylphenyl)piperazine], the inhibition constant Ki came to 0.015 µM and the inhibition at 10 µM was determined as 95.4%.
